Results on one compound are retold here after patent US4576961A, “Antibiotic heterocyclic oxygen compounds and use” (priority 1980, dated 1986).

One data set deals with microorganisms. Put plainly: anti-microbial effect. It is filed as cell-based.
Data set [1] in a line: stability of PR-1381 in solution. It is filed as physicochemical. As to the method:
Characteristic signals seen in an ^1 H-NMR-spectrum recorded immediately after dissolution of PR-1381 in deuterochloroform are listed in table E.
When the solution in deuterochloroform is allowed to stand at room temperature, these initial signals gradually disappear while methanol is liberated from the molecule, and finally after 10 hours, a spectrum is observed which is identical with that obtained from PR-1350 complex in deuterochloroform, except for an extra signal at δ=3.48, probably due to methanol liberated during the transformation of PR-1381 to the PR-1350 complex.

Regarding `COC1(O)C(O)OC(CC2(C)C(C)CCC3(C)C(C=O)=CCCC32)C12CO2` (stereo not shown) [PR-1381], the antibiotic activity entry in the data set with microorganisms was “antibiotically active”. Also, the “anti-microbial effect compared with PR-1350 complex” value with microorganisms (qualitatively and quantitatively) was “identical with that of the PR-1350 complex”. Further, the “time after which spectrum is identical with that of PR-1350 complex” value in data set [1] (deuterochloroform, room temperature) is 10 h. Also, the decomposition in solution result in data set [1] (in solution) is “decomposes to the PR-1350 complex with liberation of methanol”.
